Drawing on PubChem BioAssay (NCI), this text covers TGI and GI50 for 14 compounds.

Common to all, as to experiment: NCI tumour cell line growth inhibition, 48 h
For assay [1], the system named is OVCAR-5 ovarian.
The test system of assay [2] is UACC-257 melanoma.
The subject of assay [3] is ACHN renal.
Assay [4] concerns NCI-H522 lung.
Assay [5] deals with K-562 leukemia.
Assay [6] concerns SK-MEL-2 melanoma.
The subject of assay [7] is SNB-19 CNS.
Assay [8] concerns CAKI-1 renal.
Assay [9] deals with OVCAR-4 ovarian.

“And” between values parts separate entries of the source, which are not always exact repeats. Equal values may be shown once.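 Results reflect a 48-hour exposure of cells in 96-well plates to compound at five concentrations. GI50 = concentration required for 50% inhibition of growth. TGI marks complete inhibition of growth.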 A value given as a limit tells only on which side of the number the result lay.

With `O=[N+]([O-])c1ccc(C[P+](c2ccccc2)(c2ccccc2)c2ccccc2)cc1`, the TGI was > 100 µM in assay [1]; 47.3 µM in assay [2]; > 100 µM in [3]; > 100 µM in assay [4]; > 100 µM in assay [5]; > 100 µM in assay [6]. Further, the TGI in [7] was > 100 µM.

For the compound `CC1=C(c2ccccc2)C(c2ccccc2)=C(c2ccccc2)C2(c3ccccc3)C(=O)C(C)CN12` (configuration not stated), the TGI in [1] was > 100 µM; in assay [8] it was > 100 µM; in [2], > 100 µM; in assay [3], > 100 µM; in [4] it was 72.4 µM; in assay [6] it was > 100 µM. For the same compound, the TGI in [9] is 50.5 µM; in [7] it was > 100 µM.

With `CCc1ccccc1NC(=O)C1=C(C)NC(C)=C(C(=O)Nc2ccccc2CC)C1c1ccccc1Cl`, the TGI in [1], in [8], in assay [2], in assay [3], in assay [4] and in assay [5] was > 100 µM in each case. Also, the TGI in [6], in [9] and in [7] was > 100 µM in each case.

Take `CCCCCCCCCCCc1nnc(N)o1`: the TGI in assay [1], in [2], in [3], in assay [4], in assay [5] and in assay [6] was > 100 µM each time. Besides, the TGI is > 100 µM in assay [9] and 50.7 µM in assay [7].

Turning to `O=C(O)C1=C(O)C(C(=O)O)C23CCCCCCCCCCC12C(C(=O)O)C(O)=C3C(=O)O` (configuration not stated), the TGI in assay [1], in assay [2], in assay [3], in [4], in [5] and in [6] was > 100 µM each time. In assay [7], the TGI was > 100 µM.

For `O=C(O)CN(CC(=O)O)Cc1cc(C#Cc2ccc(C#Cc3ccccc3)cc2)cc(CN(CC(=O)O)CC(=O)O)n1`, the TGI in assay [1] is > 81.6 µM; in [8] it was 61.9 µM; in assay [2], > 89.1 µM; in assay [3] it was 97.5 µM; in assay [4], 52 µM; in assay [5], > 67.5 µM. In addition, the figures for the TGI in assay [6], in assay [9] and in assay [7] were > 73.7 µM, 56 µM and > 77 µM, respectively.

As for `COC1=C(N)C(=O)c2nc(C)ccc2C1=O`, the TGI in assay [1] is 3.43 µM; in [8], 22.4 µM; in [2] it was 2.78 µM; in assay [3], 3.27 µM; in assay [4], 3.21 µM; in [5], > 22.5 µM. Further, the TGI is 3.28 µM in assay [6], 3.66 µM in assay [9] and 3.83 µM in assay [7].

`Cc1nnn[n-]1.N.N.N.N.N.[Cl-].[Co+3]`: the GI50 in [1], in [2], in assay [3], in assay [4], in assay [5] and in assay [6] was > 100 µM throughout. The GI50 in assay [7] was > 100 µM. Further, the TGI in assay [1], in assay [2], in assay [3], in assay [4], in assay [5] and in assay [6] was > 100 µM each time. Also, the TGI in [7] is > 100 µM.

Turning to `COC(=O)CC1C[C@H](C#N)N(C(=O)c2ccccc2)C[C@@H]1CC[N+](=O)[O-]` (some centres not stated), the TGI is > 100 µM in [1]; > 100 µM in assay [2]; > 100 µM in [3]; > 100 µM in [5]; 0.834 µM in assay [6]; > 100 µM in assay [9]. The TGI in assay [7] was > 100 µM.

Regarding `O/N=C1/C(=C/c2ccc3c(c2)OCO3)CCCC1C(NO)c1ccc2c(c1)OCO2` (configuration not stated), the TGI in [8] is 94.6 µM; in assay [2], 33.9 µM; in assay [3], > 100 µM; in assay [4] it was 40.2 µM; in assay [5], 71 µM; in [6] it was 48.1 µM. In addition, the figures for the TGI in [9] and in assay [7] were 75.1 µM and > 100 µM, respectively.

Regarding `CS(=O)(=O)OC1CCC2(C#N)CCC1C2=O` (configuration not stated), the TGI in [1], in [8], in assay [2], in assay [3], in assay [4] and in assay [5] was > 100 µM each time. Besides, the TGI in assay [6], in [9] and in [7] was > 100 µM throughout.

In the case of `O=C1N(C2CCCCC2)CC12CCCCC2`, the TGI in [3], in [4], in assay [5], in [6], in [9] and in assay [7] was > 100 µM each time.

For the compound `CN(O)C(=O)SCC(NC(=O)CCC(N)C(=O)O)C(=O)NCC(=O)O` (configuration not stated), the TGI in assay [1] is > 2 µM; in assay [8], > 2000 µM; in assay [2], > 2000 µM; in assay [3], > 2000 µM; in [4] it was > 2000 µM; in [5], > 2000 µM. In addition, the TGI in [6], in [9] and in assay [7] was > 2000 µM each time. Moreover, the GI50 in assay [8] is > 2000 µM; in assay [2], > 2000 µM; in [3], > 2000 µM; in assay [4], > 2000 µM; in [5] it was > 2 µM and 812 µM; in [6], > 2 µM and 524 µM. Further, the GI50 in [9] and in [7] was > 2000 µM in each case.

Regarding `CC1=C(C(=O)Nc2cc(=O)n(C)c(=O)n2C)C(c2ccco2)C(C(=O)Nc2cc(=O)n(C)c(=O)n2C)=C(C)N1`, the TGI in assay [1], in assay [8], in [2], in assay [3], in assay [4] and in assay [5] was > 100 µM in each case. The TGI in assay [6], in assay [9] and in [7] was > 100 µM each time.
